The results in this text go back to patent US20260070902A1, “SULFONYL DERIVATIVES AS CCR6 INHIBITORS” (Hoffmann-La Roche Inc., priority 2022, published 2026).

The assay concerns the target T1, human CCR6 (Homo sapiens, UniProt P51684).
T1 sequence (P51684 1-374): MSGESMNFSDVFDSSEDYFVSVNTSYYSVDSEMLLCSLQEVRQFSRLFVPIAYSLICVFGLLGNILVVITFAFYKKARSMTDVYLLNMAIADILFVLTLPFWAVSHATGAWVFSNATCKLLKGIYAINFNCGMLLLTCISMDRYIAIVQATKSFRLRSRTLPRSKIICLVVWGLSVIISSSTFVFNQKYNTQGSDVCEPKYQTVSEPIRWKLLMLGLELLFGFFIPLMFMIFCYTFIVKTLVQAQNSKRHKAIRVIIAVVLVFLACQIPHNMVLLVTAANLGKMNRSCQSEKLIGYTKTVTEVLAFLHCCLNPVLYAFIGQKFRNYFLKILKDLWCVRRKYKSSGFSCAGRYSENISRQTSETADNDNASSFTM
Kind of assay: Human CCR6-CRE reporter assay. The conditions noted are these: relative -Log IC50; 293FT cells transfected with human CCR6 and CRE-luciferase reporter; 6 μM Forskolin, 6 nM CCL20; 5 h. Format: cell-based. Also noted: The second construct contained the open reading frame of human CCR6 in the pUNO1 backbone; host or cells: 293FT cells. On the procedure: Human CCR6-CRE Reporter Assay
293FT cells were transfected with 2 constructs using TransIT-293 (Mirus). The first construct (pGL4.29, Promega) expressed the luciferase reporter gene luc2P in response to the binding of cAMP-induced CREB to the CREelement in its promoter. The second construct contained the open reading frame of human CCR6 in the pUNO1 backbone under the control of an enhanced CMV promoter (InVivoGen). 48 h after transfection, cells were harvested and diluted to 750,000 cells/ml in culture medium (DMEM, 10% FBS, 1× pen/strep (Gibco 15140)). Compounds were 2.5-fold serially diluted in DMSO. Further dilutions were made in assay medium (DMEM, 10% FBS, 1× pen/strep, 6 μM Forskolin, 6 nM CCL20). 4 μl of the compound solution was added to a white MW384 plate, followed by 20 μl of the cell suspension. Final DMSO concentration in the assay was 0.1%. The MW384 plate was placed in an incubator at 37° C., 5% CO2 for 5 h. Luciferase activity was determined by addition of 24 μl of a 2.5× diluted BriteLite luciferase solution (Perkin Elmer), followed by luminescence measurement using a VICTOR Plate reader (Perkin Elmer). […] The relative −Log IC50 was determined with GraphPad Prism 9 using a four-parameter dose-response model.
`Cc1cc(-c2ccc(S(=O)(=O)[C@H]3CC[C@H](Nc4ccc(S(F)(F)(F)(F)F)cn4)CC3)cc2)cn2c(C(C)C)nnc12` [Example 181, 5-(pentafluoro-λ^6-sulfanyl)-N-[trans-4-{4-[8-methyl-3-(propan-2-yl)-[1,2,4]triazolo[4,3-a]pyridin-6-yl]benzenesulfonyl}cyclohexyl]pyridin-2-amine] gave an IC50 of 25.1 nM.

Turning to `N=S(=O)(c1ccc(-c2ccc3c(c2)NC(=O)C3)cc1)[C@H]1CC[C@H](Nc2ccc(S(F)(F)(F)(F)F)cc2)CC1` (stereo partly drawn) [Example 117, 6-(4-{[trans-4-{[4-(pentafluoro-λ^6-sulfanyl)phenyl]Amino}cyclohexyl]sulfonimidoyl}phenyl)-2,3-dihydro-1H-indol-2-one], inhibition was half-maximal at 251 nM (IC50). With `CN(C)C(=O)c1cccc(-c2ccc(S(=N)(=O)[C@H]3CC[C@H](Nc4ccc(S(F)(F)(F)(F)F)cc4)CC3)cc2)c1` (stereo partly drawn) [Example 97, N,N-dimethyl-4′-{[trans-4-{[4-(pentafluoro-λ^6-sulfanyl)phenyl]Amino}cyclohexyl]sulfonimidoyl}-[1,1′-biphenyl]-3-carboxamide] the figure was 1000 nM. With `CN(C)C(=O)c1cc(-c2ccc(S(=N)(=O)[C@H]3CC[C@H](Nc4ccc(S(F)(F)(F)(F)F)cc4)CC3)cc2)ccn1` (stereo partly drawn) [Example 109, N,N-dimethyl-4-(4-{[trans-4-{[4-(pentafluoro-λ^6-sulfanyl)phenyl]Amino}cyclohexyl]sulfonimidoyl}phenyl)pyridine-2-carboxamide] the figure was 2000 nM; with `N=S(=O)(c1ccc(-c2ccc3nccn3c2)cc1)[C@H]1CC[C@@H](Nc2ccc(S(F)(F)(F)(F)F)cc2)CC1` (stereo partly drawn) [Example 88, (4-{imidazo[1,2-a]pyridin-6-yl}phenyl)[cis-4-{[4-(pentafluoro-λ^6-sulfanyl)phenyl]Amino}cyclohexyl](imino)-λ^6-sulfanone], 794 nM. With `N=S(=O)(c1ccc(-c2ccc3c(c2)CCNC3=O)cc1)[C@H]1CC[C@H](Nc2ccc(S(F)(F)(F)(F)F)cc2)CC1` (stereo partly drawn) [Example 113, 6-(4-{[trans-4-{[4-(pentafluoro-λ^6-sulfanyl)phenyl]Amino}cyclohexyl]sulfonimidoyl}phenyl)-1,2,3,4-tetrahydroisoquinolin-1-one] the figure was 316 nM; with `NC(=O)c1ccc(-c2ccc(S(=O)(=O)[C@H]3CC[C@H](Nc4ccc(S(F)(F)(F)(F)F)cc4)CC3)cc2)nn1` [Example 62, 6-(4-{[trans-4-{[4-(pentafluoro-λ^6-sulfanyl)phenyl]Amino}cyclohexyl]sulfonyl}phenyl)pyridazine-3-carboxamide], 398 nM; with `N=S(=O)(c1ccc(-c2ccc3n[nH]c(=O)n3c2)cc1)[C@H]1CC[C@H](Nc2ccc(S(F)(F)(F)(F)F)cc2)CC1` (stereo partly drawn) [Example 119, 6-(4-{[trans-4-{[4-(pentafluoro-λ^6-sulfanyl)phenyl]Amino}cyclohexyl]sulfonimidoyl}phenyl)-2H,3H-[1,2,4]triazolo[4,3-a]pyridin-3-one], 316 nM. Molecule `N=S(=O)(c1ccc(-c2ccc(C(N)=O)nc2)cc1)[C@H]1CC[C@H](Nc2ccc(S(F)(F)(F)(F)F)cc2)CC1` (stereo partly drawn) [Example 108, 5-(4-{[trans-4-{[4-(pentafluoro-λ^6-sulfanyl)phenyl]Amino}cyclohexyl]sulfonimidoyl}phenyl)pyridine-2-carboxamide] had an IC50 of 501 nM.

The molecule `N=S(=O)(c1ccc(-c2ccn3ccnc3c2)cc1)[C@H]1CC[C@H](Nc2ccc(S(F)(F)(F)(F)F)cc2)CC1` (stereo partly drawn) [Example 93, (4-{imidazo[1,2-a]pyridin-7-yl}phenyl)[trans-4-{[4-(pentafluoro-λ^6-sulfanyl)phenyl]Amino}cyclohexyl](imino)-λ^6-sulfanone] had an IC50 of 398 nM. `CN(C)c1cnc2ccc(-c3ccc(S(=O)(=O)[C@H]4CC[C@H](Nc5ccc(S(F)(F)(F)(F)F)cc5)CC4)cc3)cn12` [Example 143, N,N-dimethyl-6-(4-{[trans-4-{[4-(pentafluoro-λ^6-sulfanyl)phenyl]amino}cyclohexyl]sulfonyl}phenyl)imidazo[1,2-a]pyridin-3-amine] had an IC50 of 100 nM.

As for `N=S(=O)(c1ccc(-c2ccc3c(c2)C(=O)NCC3)cc1)[C@H]1CC[C@H](Nc2ccc(S(F)(F)(F)(F)F)cc2)CC1` (stereo partly drawn) [Example 114, 7-(4-{[trans-4-{[4-(pentafluoro-λ^6-sulfanyl)phenyl]Amino}cyclohexyl]sulfonimidoyl}phenyl)-1,2,3,4-tetrahydroisoquinolin-1-one], inhibition was half-maximal at 398 nM (IC50).

Molecule `CNC(=O)c1ccc(-c2ccc(S(=N)(=O)[C@H]3CC[C@H](Nc4ccc(S(F)(F)(F)(F)F)cc4)CC3)cc2)nc1` (stereo partly drawn) [Example 107, N-methyl-6-(4-{[trans-4-{[4-(pentafluoro-λ^6-sulfanyl)phenyl]Amino}cyclohexyl]sulfonimidoyl}phenyl)pyridine-3-carboxamide] gave an IC50 of 1580 nM. In turn, `O=C1Cc2cc(-c3ccc(S(=O)(=O)[C@H]4CC[C@H](Nc5ccc(S(F)(F)(F)(F)F)cc5)CC4)cc3)ccc2CN1` [Example 54, 6-(4-{[trans-4-{[4-(pentafluoro-λ^6-sulfanyl)phenyl]Amino}cyclohexyl]sulfonyl}phenyl)-1,2,3,4-tetrahydroisoquinolin-3-one] had an IC50 of 50.1 nM. `O=C1Nc2ccc(-c3ccc(S(=O)(=O)[C@H]4CC[C@H](Nc5ccc(S(F)(F)(F)(F)F)cc5)CC4)cc3)cc2C12CC2` [Example 65, 5′-(4-{[trans-4-{[4-(pentafluoro-λ^6-sulfanyl)phenyl]amino}cyclohexyl]sulfonyl}phenyl)-1′,2′-dihydrospiro[cyclopropane-1,3′-indol]-2′-one] showed an IC50 of 39.8 nM. With `N#Cc1cnc2ccc(-c3ccc(S(=O)(=O)N4CCC(Nc5ccc(S(F)(F)(F)(F)F)cc5)CC4)nc3)cn12` [Example 78, 6-{6-[(4-{[4-(pentafluoro-λ^6-sulfanyl)phenyl]Amino}piperidin-1-yl)sulfonyl]pyridin-3-yl}imidazo[1,2-a]pyridine-3-carbonitrile] the figure was 1580 nM; with `N#Cc1cnc2ccc(-c3ccc(S(=O)(=O)N4CCC(Nc5ccc(S(F)(F)(F)(F)F)cc5)CC4)c(Cl)c3)cn12` [Example 80, 6-{3-chloro-4-[(4-{[4-(pentafluoro-λ^6-sulfanyl)phenyl]Amino}piperidin-1-yl)sulfonyl]phenyl}imidazo[1,2-a]pyridine-3-carbonitrile], 2000 nM; with `N#Cc1c[nH]c2ccc(-c3ccc(S(=N)(=O)N4CCC(Nc5ccc(S(F)(F)(F)(F)F)cc5)CC4)cc3)cc12` (stereo not shown) [Example 120, 5-{4-[(4-{[4-(pentafluoro-λ^6-sulfanyl)phenyl]Amino}piperidin-1-yl)sulfonimidoyl]phenyl}-1H-indole-3-carbonitrile], 63.1 nM. With `CNC(=O)c1cc(-c2ccc(S(=N)(=O)[C@H]3CC[C@H](Nc4ccc(S(F)(F)(F)(F)F)cc4)CC3)cc2)ccn1` (stereo partly drawn) [Example 110, N-methyl-4-(4-{[trans-4-{[4-(pentafluoro-λ^6-sulfanyl)phenyl]Amino}cyclohexyl]sulfonimidoyl}phenyl)pyridine-2-carboxamide] the figure was 316 nM. For `Cc1cnc2ccc(-c3ccc(S(=O)(=O)N4CCC(Nc5ccc(S(F)(F)(F)(F)F)cc5)CC4)cc3F)cn12` [Example 68, 1-(3-fluoro-4-{3-methylimidazo[1,2-a]pyridin-6-yl}benzenesulfonyl)-N-[4-(pentafluoro-λ^6-sulfanyl)phenyl]piperidin-4-amine] the value was 1000 nM; for `CC(C)NC(=O)c1cccc(-c2ccc(S(=O)(=O)[C@H]3CC[C@H](Nc4ccc(S(F)(F)(F)(F)F)cc4)CC3)cc2)c1` [Example 141, N-(propan-2-yl)-4′-{[trans-4-{[4-(pentafluoro-λ^6-sulfanyl)phenyl]amino}cyclohexyl]sulfonyl}-[1,1′-biphenyl]-3-carboxamide], 79.4 nM; for `O=C1Cc2ccc(-c3ccc(S(=O)(=O)[C@H]4CC[C@H](Nc5ccc(S(F)(F)(F)(F)F)cc5)CC4)cc3)cc2CN1` [Example 53, 7-(4-{[trans-4-{[4-(pentafluoro-λ^6-sulfanyl)phenyl]Amino}cyclohexyl]sulfonyl}phenyl)-1,2,3,4-tetrahydroisoquinolin-3-one], 79.4 nM.

What is called IC50 is the concentration needed to halve the response being measured. A lower IC50 goes with greater potency in that assay.
